Experimental data taken from patent publication US20130203830A1, “Compounds for Prevention of Cell Injury” (SULFATEQ B.V., priority 2010, published 2013).
“Also recorded” adds a separate entry of the source.

Key:
SMAC cells [1] = test: Survival of SMAC cells after hypothermia (MTS assay / cell counting); type: cell-based, rat; details: for effect on the protective effect of serotonin on hypothermic SMAC cells: 24 h, 3° C., ketanserine 400 ng/ml and 10 μg/ml, fluoxetine 0.005 μM, CBS siRNA
Procedure: (§1) Cell lines used included NRK (normal rat kidney cells), DDT-1 (hamster ductus deferens muscle cells) and A7R5 (rat vascular smooth muscle cells) cultured in DMEM (Gibco, 41966, UK) and SMAC (rat smooth muscle aortic cells) and THMC (transformed human mesangial cell) cultured in DMEM/F12 (Gibco, E12-719F). All media were supplied with 10% (vol/vol) fetal calf serum and 1% penicillin-streptomycin and cultured at 37° C. in 5% CO2 in 25 cm^2 or 75 cm^2 flasks. For hypothermia experiments, cells were plated in 6 or 96 wells plates and grown to confluence. Thereupon, cells were placed at 3° C. for up to 24 hours. Cell survival was measured by counting of trypan blue stained cells or MTS assay, which measures the number of viable cells. For the latter, 20 μl of MTS solution was added to each well and cells were subsequently placed in the incubator at 37° C. in 5% CO2 for 3 hr before assessing the cell survival by measuring absorption using a microplate reader at 490 nm.
(§2) MTS assay was performed to investigate cell survival after blocking serotonin transporter and hypothermic treatment.

DDT-1 cells [2] = test: Survival of DDT-1 cells after hypothermia (MTS assay); type: cell-based, hamster; details: 3° C.; for resistance / survival of DDT-1 cells in hypothermia: 24 h, ketanserine 400 ng/ml and 10 μg/ml, fluoxetine 0.005 μM 15 min before, CBS siRNA
Procedure: as §1, with “Thereupon, cells were placed at 3° C. for up to 24 hours.” left out
as §2
Parachlorophenyl-alanine (PCPA; Sigma, C6506-5G) was dissolved in warmed, acidified (pH 6.8) DDT-1 medium and vortexed for 5 min to a final concentration of 1.25 μM. Other concentrations were made from this stock solution. Control experiments were performed with a similar solution without PCPA. Anhydrous creatine (Sigma C4255-25G, USA) was dissolved in cell medium and added to wells to exclude the effect of this component. The treatment continued for 4 days until the concentration of indoleamines inside the cells reached half the baseline value. The cells were placed at 3° C., and MTS assay was performed after 24 h.

DDT-1 cells [3] = test: H2S content of DDT-1 cells (methylene blue method); type: cell-based, hamster; details: hypothermia, at 24 h
Procedure: (§3) Methylene blue method for H2S detection was applied to quantitatively measure the H2S production. Cells were washed with PBS, scraped and centrifuged for 60 sec at 1000 rpm. After removal of the supernatant, zinc acetate 1% in water (200 μl) was added to the cell sediments and the cells were disrupted by small glass beads and vortexed for 20 seconds. Diamine-ferric solution was prepared by mixing 100 μl of a 400 mg N,N-dimethyl-p-phenylenediamine dihydrochloride dissolved in 10 ml 6M HCl and 100 μl of 600 mg ferric chloride in 10 ml 6M HCl. Two hundred μl of this mixture was added to the cell suspension and after an incubation time of 30 min at 37° C. and centrifugation, the amount of methylene blue formed in the supernatant was measured at a wavelength of 670 nm. To measure H2S content of supernatant, the same procedure was repeated for the cell free medium of cells incubated at both 37° C. and 3° C. Blanks were made following the same procedure without cells or using fresh medium. The concentration of H2S was calculated by extrapolation using a standard curve obtained from different concentrations of Methylene blue and spectrophotometric measurement at a wavelength of 670 nm. The amount of H2S present was calculated on the basis that every mole of methylene blue formed in this reaction contains 32 g (1 mole) of captured sulfur.

SMAC cells [4] = test: H2S production in SMAC cells at 3° C. (methylene blue, supernatant); type: cell-based, rat; details: SMAC cells incubated at 3° C. for 24 hour
Procedure: as §3
Methylene blue method for H2S detection was applied to quantitatively examine the H2S present in cell supernatant at 0 and 24 hr after hypothermic treatment at 3° C.

CBS [5] = test: CBS expression in normothermic and hypothermic rat tissue (immunostaining); details: liver, pancreas, lung, kidney, heart; 3° C., 24 hr
Excerpt: Two rats (rattus norvegicus) were sacrificed and blood was taken out. The tissues were flushed by either PBS as control or PBS plus dopamine. Liver, pancreas, lung, kidney and heart were harvested. […] Tissues were fixed after being taken out of cold room. The tissues were later embedded in Paraffin, cut into 5 μm sections and stained with CBS antibody.

male Wistar rats = test: In vivo protection from hypothermic liver damage (FABP1 expression); design: species or system rat; details: rats cooled to 15° C. for 3 hr and rewarmed to 37° C.; compared to non-cooled control
Procedure: (§4) Three groups of male Wistar rats (350-400 gr) were investigated: cooled rats either anesthetized with propofol or ketamine (n=6 each); a non-cooled control group briefly anesthetized with isofluran was sacrificed at 37° C. (n=3). After anesthesia with isofluran, the trachea was intubated with a […] cuffed tube and mechanical ventilation was started with air. A 5F central venous catheter was introduced in the internal jugular vein for blood sampling, hydration and administration of the anesthetic. A catheter was inserted in the common carotid artery for continuous monitoring of systemic arterial pressure and for blood gas analysis. Cardiovascular and oxygen saturation monitoring was performed during the entire procedure. After preparation, isoflurane was stopped and anesthesia was maintained with either propofol-Lipro (20 mg/m; Braun, Melsungen, Duitsland) at 2 ml/h or ketamine 0.6 ml/hr for 1 hr. Cooling of the animals was accomplished by an external cooling blanket and ice packs. […] Rats were kept at this temperature for 3 hr, followed by rewarming to 37° C. in about 1 hr using a heating blanket and warm air. The rats were then kept at 37° C. for another hr, followed by sacrification by exsanguination. Blood sampling was performed at the end of the preparation period and every hr after the body temperature reached 15° C. […]

CBS [6] = test: CBS expression in liver of cooled and rewarmed rats; type: in vivo, rat; details: rats cooled to 15° C. for 3 hr and rewarmed; compared to controls
Procedure: as §4, with “exsanguination.” for “exsanguination. Blood sampling was performed at the end of the preparation period and every hr after the body temperature reached 15° C.”
CBS (cystathionine betasynthase) expression was also measured as the one of the main enzymes producing H2S in the liver.

[7] = Serum H2S concentration in rats (methylene blue method); type: in vivo, rat; details: throughout cooling and rewarming procedure, compared to control
CBS [8] = target: T1, CBS (Homo sapiens, UniProt P35520); details: binding to CBS; cited from earlier work
T1 sequence (P35520 1-551): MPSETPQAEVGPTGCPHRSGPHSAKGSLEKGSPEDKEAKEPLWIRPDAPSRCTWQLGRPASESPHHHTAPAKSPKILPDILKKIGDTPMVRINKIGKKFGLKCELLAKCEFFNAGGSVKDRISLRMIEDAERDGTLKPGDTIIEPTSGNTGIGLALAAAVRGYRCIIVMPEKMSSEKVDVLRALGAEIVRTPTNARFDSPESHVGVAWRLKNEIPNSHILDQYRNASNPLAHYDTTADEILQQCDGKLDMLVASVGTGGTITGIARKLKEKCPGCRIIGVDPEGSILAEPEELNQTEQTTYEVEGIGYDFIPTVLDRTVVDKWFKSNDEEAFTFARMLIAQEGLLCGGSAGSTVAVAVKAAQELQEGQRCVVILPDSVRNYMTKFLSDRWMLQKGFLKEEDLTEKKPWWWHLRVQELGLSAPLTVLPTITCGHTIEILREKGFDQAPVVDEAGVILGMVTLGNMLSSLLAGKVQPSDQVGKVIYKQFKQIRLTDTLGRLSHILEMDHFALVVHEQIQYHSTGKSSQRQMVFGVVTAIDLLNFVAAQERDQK

DDT-1 cells [9] = test: Indoleamine content of DDT-1 cells (Ehrlich reagent); type: cell-based, hamster; details: 4 days of pretreatment, n=8
Procedure: Ehrlich's reagent was used to quantify the cellular amount of indoles. Qualitative analysis of cellular indoles in cell culture medium at 37° C. and 3° C. was conducted after extraction according to Happold and Hoyle. Five ml of medium was shaken vigorously with 2 ml of xylene. Next, 1 ml of Ehrlich's reagent is applied to the surface of the mixture. Redistribution of xylene through the Ehrlich's reagent induces formation of the rosindole body, a red ring appearing at the lower surface of the xylene layer indicating the presence of indoleamides. The change in indole concentration in DDT-1 cells was measured after washing the cells with PBS, centrifugation (1000 rpm, 5 min) and removal of supernatant. Ehrlich reagent (200 μl) was added to each tube. After 3 min of vortexing, tubes were left for 3 h at 60° C. After centrifugation (1000 rpm, 5 min), color intensity was spectrophotometrically measured at 625 nm. Calibration experiments were carried out using 5-HT (0.025-0.5 mM), which rendered a linear regression with a correlation coefficient (R2) of 0.9996 (data not shown). To verify the accuracy of the Ehrlich reagent experiments automated mass spectrometric analysis was performed on all the samples according to the method set up by Ido P. Kema. […]

For `CNCCC(Oc1ccc(C(F)(F)F)cc1)c1ccccc1` (stereo not drawn) [Fluoxetine], the “effect on the protective effect of serotonin on hypothermic SMAC cells” value (SMAC cells [1]) was “complete annihilation of the protective effect of serotonin”, the “resistance / survival of DDT-1 cells in hypothermia” value (DDT-1 cells [2]) was “death of more than half of these cells” and the “H2S concentration inside DDT-1 cells” value (DDT-1 cells [3]) was “lower concentration of H2S”.

With `O=C(c1ccc(F)cc1)C1CCN(CCn2c(=O)[nH]c3ccccc3c2=O)CC1` [Ketanserine] the “effect on the protective effect of serotonin on hypothermic SMAC cells” value (SMAC cells [1]) was “nor did it affect the protective effect of serotonin” and the “resistance / survival of DDT-1 cells in hypothermia” value (DDT-1 cells [2]) was “did not affect the resistance”.

With `NCC(CC(=O)O)c1ccc(Cl)cc1` (racemic) [baclofen, (RS)-4-amino-3-(4-chlorophenyl)butanoic acid] the H2S production (SMAC cells [4]) was “increased H2S production”.

In the case of `NCCc1ccc(O)c(O)c1` [dopamine, 2-(3,4-dihydroxyfenyl)ethylamine], the “CBS expression in hypothermic rat tissue” value (CBS [5]) is reported as “increased expression; also recorded: upregulation of CBS” and the H2S production (SMAC cells [4]) is reported as “increased H2S production”.

For `CNC1(c2ccccc2Cl)CCCCC1=O` (stereo not drawn) [ketamine, reference compound], the “liver damage, FABP1 expression in liver” value (male Wistar rats) was “decreased expression of FABP1”, the “CBS expression in liver” value (CBS [6]) was “significantly lowered” and the “Serum H2S concentration” value [7] was “decreased”.

In the case of `NCCc1c[nH]cn1` [histamine, 4-(2′-aminoethyl)-imidazol], the H2S production (SMAC cells [4]) is reported as “increased H2S production”.

In the case of `Cc1ncc(COP(=O)(O)O)c(C=O)c1O` [PLP, Pyridoxal 5-Phosphate], the “free energy of binding reported for PLP” value (CBS [8]) is listed as -4.81 kcal/mol.

In the case of `COc1ccc2[nH]cc(CCNC(C)=O)c2c1` [melatonin, N-[2-(5-methoxy-1H-indol-3-yl)ethyl]acetamide], the H2S production (SMAC cells [4]) is reported as “increased H2S production”.

With `N[C@@H](Cc1ccc(Cl)cc1)C(=O)O` (racemic) [PCPA, parachlorophenylalanine] the “DDT-1 survival following hypothermia after PCPA pretreatment” value (DDT-1 cells [2]; 48 hr) was “concentration-dependently decreased; also recorded: blocked” and the “decrease in indoleamine content of the cells” value (DDT-1 cells [9]) was 50±10%.

For `CC(C)c1cccc(C(C)C)c1O` [propofol, 2,6-diisopropylfenol], the H2S production (SMAC cells [4]) was “increased H2S production”, the “liver damage, FABP1 expression in liver” value (male Wistar rats) was “protects liver tissue against in vivo hypothermia” and the “CBS expression in liver” value (CBS [6]) was “induces expression of cystathionine beta synthase; also recorded: increased the expression of CBS”. For the same compound, the “Serum H2S concentration” value [7] was “increased”.

With `CN(CC(=O)O)C(=N)N.O=S(=O)(O)O` [Creatine sulfate] the “protection against hypothermic cell death / reduction in number of cells” value (SMAC cells [1]; SMAC cells, 24 h at 3° C., substance added 15 min before hypothermia) was “did not show any protective effects”.
